Measured values reported in patent publication US7897598B2, “Inhibitors of the anandamide transporter” (priority 1998, dated 2011).
Several values for one entry are separate records, joined by “and”; a condition that tells them apart may be missing. Identical values can stand only once. Like-named read-outs stand apart in the source and are kept apart here.

What was measured:
anandamide transporter [1] = system: anandamide transporter
[2] = target: rat cerebral membranes ([3H]WIN-55212-2 binding) (Rattus norvegicus, UniProt P20272); assay: Binding of [3H]WIN-55212-2 to rat cerebral membranes
Sequence of rat cerebral membranes ([3H]WIN-55212-2 binding) (P20272 whole entry): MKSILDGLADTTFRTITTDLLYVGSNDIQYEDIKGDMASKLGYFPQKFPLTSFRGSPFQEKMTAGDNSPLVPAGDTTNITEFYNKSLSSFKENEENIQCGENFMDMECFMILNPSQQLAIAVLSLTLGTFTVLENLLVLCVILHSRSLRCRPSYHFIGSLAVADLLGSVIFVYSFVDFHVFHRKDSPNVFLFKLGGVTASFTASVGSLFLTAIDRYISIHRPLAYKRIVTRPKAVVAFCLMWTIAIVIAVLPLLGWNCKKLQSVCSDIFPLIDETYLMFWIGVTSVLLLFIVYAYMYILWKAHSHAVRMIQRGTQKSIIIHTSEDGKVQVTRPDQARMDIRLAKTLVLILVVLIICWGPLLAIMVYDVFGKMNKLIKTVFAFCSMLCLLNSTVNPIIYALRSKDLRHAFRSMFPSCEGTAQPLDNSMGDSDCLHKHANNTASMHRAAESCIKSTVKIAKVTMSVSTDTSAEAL

[3] = target: T1, fatty acid amide hydrolase (FAAH) (Rattus norvegicus, UniProt P97612); assay: FAAH activity in brain microsomes; type: biochemical
T1 construct: from tissue; host or cells: brain microsomes
T1 sequence (P97612 1-579): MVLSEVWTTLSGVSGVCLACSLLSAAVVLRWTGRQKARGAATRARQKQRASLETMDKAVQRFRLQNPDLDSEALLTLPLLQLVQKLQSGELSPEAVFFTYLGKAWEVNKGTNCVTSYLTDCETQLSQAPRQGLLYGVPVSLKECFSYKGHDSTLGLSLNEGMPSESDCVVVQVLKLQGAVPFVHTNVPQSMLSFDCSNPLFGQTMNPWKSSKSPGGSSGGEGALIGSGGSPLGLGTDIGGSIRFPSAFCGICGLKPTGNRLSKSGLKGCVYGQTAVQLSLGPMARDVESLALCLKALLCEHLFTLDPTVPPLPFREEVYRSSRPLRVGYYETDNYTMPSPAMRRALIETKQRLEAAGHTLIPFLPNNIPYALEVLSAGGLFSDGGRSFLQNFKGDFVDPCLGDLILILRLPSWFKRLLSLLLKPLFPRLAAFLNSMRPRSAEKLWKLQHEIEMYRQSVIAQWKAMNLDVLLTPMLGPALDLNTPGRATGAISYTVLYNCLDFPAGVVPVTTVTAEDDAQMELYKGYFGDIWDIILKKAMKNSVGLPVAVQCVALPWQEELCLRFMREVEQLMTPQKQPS

anandamide transporter [4] = assay: [3H]anandamide accumulation in neurons; type: cell-based, rat
[5] = system: adenylyl cyclase activity; assay: cAMP concentrations (adenylyl cyclase activity) in forskolin-stimulated cortical neurons; type: cell-based, rat
anandamide transporter [6] = assay: [3H]anandamide accumulation in cortical astrocytes in culture; type: cell-based, rat
male Swiss mice = details: mouse, in vivo
anandamide transporter [7] = assay: [3H]anandamide transport assay, inhibition in astrocytoma cells; details: for IC50: read-out: IC50, [3H]anandamide accumulation
CB1 receptors = CB1 receptors (Homo sapiens, UniProt P21554); assay: Binding to CB1 receptors
Sequence of CB1 receptors (P21554 whole entry): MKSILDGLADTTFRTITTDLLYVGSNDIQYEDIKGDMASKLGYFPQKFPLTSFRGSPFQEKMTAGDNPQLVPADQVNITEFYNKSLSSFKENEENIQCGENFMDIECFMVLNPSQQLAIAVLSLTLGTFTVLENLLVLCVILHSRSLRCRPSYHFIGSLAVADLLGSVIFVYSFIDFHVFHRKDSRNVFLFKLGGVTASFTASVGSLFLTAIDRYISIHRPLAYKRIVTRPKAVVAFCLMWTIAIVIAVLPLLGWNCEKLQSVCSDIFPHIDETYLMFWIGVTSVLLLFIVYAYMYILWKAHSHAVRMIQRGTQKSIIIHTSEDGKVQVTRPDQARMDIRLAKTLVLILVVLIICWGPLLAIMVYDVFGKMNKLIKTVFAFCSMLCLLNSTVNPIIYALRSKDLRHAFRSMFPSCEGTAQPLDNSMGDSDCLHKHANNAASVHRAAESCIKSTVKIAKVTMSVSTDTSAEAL

anandamide transporter [8] = assay: Transport (translocation) of radioactively labeled substrates into astrocytoma cells; type: cell-based, human; details: radioactively labeled compound, FIG. 4 and FIG. 5

Molecule: CCCCCC=CCC=CCC=CCC=CCCCC(=O)N1CCC(O)CC1
- IC50 (anandamide transporter [1]): 10 ± 0.2 µM

Molecule: CCCCCC=CCC=CCC=CCC=CCCCC(=O)N1CCOCC1
- IC50 (anandamide transporter [1]): 25 µM

Molecule: Cc1c(C2(c3cc(Br)c(O)c(Br)c3C)OS(=O)(=O)c3ccccc32)cc(Br)c(O)c1Br [bromcresol green]
- effect on binding of [3H]WIN-55212-2 [2]: no significant effect
- effect on FAAH activity [3]: no significant effect
- IC50 (anandamide transporter [4]): 4 µM
- cAMP, % of forskolin alone ([5]; 10 μM inhibitor in the presence of WIN-55212-2 1 nM, n=3): 92.9±2.3%
- enhancement of the anandamide response on cAMP (in words) ([5]; anandamide 0.3 μM, inhibitors 10 μM, SR-141716-A 1 μM): less effective
- cAMP, % of forskolin alone ([5]; inhibitor in the presence of glutamate 3 μM, n=3): 84.4±3%
- mode of inhibition of [3H]anandamide accumulation (anandamide transporter [6]): noncompetitively
- IC50 (anandamide transporter [6]; astrocytes): 12 µM

Molecule: Cc1c(C(=O)c2cccc3ccccc23)c2cccc3c2n1[C@H](CN1CCOCC1)CO3 [WIN-55212-2, reference compound]
- cAMP, % of forskolin alone [5]: 96.7±2.5%
- effect on [3H]anandamide accumulation (in words) (anandamide transporter [6]): no effect

Molecule: CCCCCCCC/C=C\CCCCCCCC(=O)NCCO [drawing 6]
- IC50 (anandamide transporter [1]): 10.5 ± 1.2 µM

Molecule: CCCCCC=CCC=CCC=CCC=CCCCC(=O)NC(C)CO (centres unmarked) [drawing 13]
- IC50 (anandamide transporter [1]): 10.4 ± 1.2 µM

Molecule: CCCCCCCC/C=C\CCCCCCCCCC(=O)NCCO
- IC50 (anandamide transporter [1]): 14.1 ± 1.2 µM

Molecule: CCCCC/C=C\C/C=C\C/C=C\CCCCCCC(=O)NCCO
- IC50 (anandamide transporter [1]): 13 ± 3.6 µM

Molecule: CCCCCC=CCC=CCC=CCC=CCCCC(=O)OCC(O)CO (centres unmarked)
- IC50 (anandamide transporter [1]): 48.5 ± 8.1 µM

Molecule: CCCCCC=CCC=CCC=CCC=CCCCC(=O)N1CCCC(O)C1 (centres unmarked)
- IC50 (anandamide transporter [1]): 15 µM

Molecule: CCCCC[C@H](O)/C=C/[C@H]1[C@H](O)CC(=O)[C@@H]1C/C=C\CCCC(=O)O [PGE2, prostaglandin E2]
- effect on [3H]anandamide accumulation (in words) (anandamide transporter [6]): inability

Molecule: CCCCCC=CCC=CCC=CCC=CCCC(C)(C)C(=O)NCC(C)O (centres unmarked) [drawing 21]
- IC50 (anandamide transporter [1]): 33.2 ± 4.2 µM

Molecule: CCCCC/C=C\C/C=C\C/C=C\C/C=C\CCCC(=O)NCCO [anandamide, Arachidonyl ethanolamide]
- IC50 (anandamide transporter [1]): 15.1 ± 3 µM
- latency to jump (male Swiss mice): 30.7 ± 0.8 s
- time after injection at which analgesia disappeared (male Swiss mice): 60 min

Molecule: CCCCC/C=C\C/C=C\C/C=C\C/C=C\CCCC(=O)Nc1ccc(O)cc1 [AM404, N-(4-hydroxyphenyl)-arachidonamide]
- competition with [3H]anandamide for transport / uptake inhibition (in words) (anandamide transporter [7]): the most potent competitor in our series
- IC50 (anandamide transporter [7]; human astrocytoma cells): 2.2 ± 0.2 µM
- cAMP, % of forskolin alone [5]: 89.8±2.6% and 84.4±4.9%
- decrease of anandamide threshold, factor [5]: 1.100
- effect on cAMP concentrations when applied alone [5]: did not reduce cAMP concentrations
- enhancement of the anandamide response on cAMP (in words) [5]: almost maximal effect
- increase of anandamide potency, factor [5]: 10
- antinociceptive effect alone (in words) (male Swiss mice): no antinociceptive effect
- effect on anandamide-induced analgesia (in words) (male Swiss mice): significantly enhanced and prolonged
- Ki (CB1 receptors): 1.8 µM

Molecule: cis-eicosaenoylethanoladide
- transport into cells (substrate translocation, in words) (anandamide transporter [8]): not transported at all

Molecule: CCCCC/C=C\C/C=C\C/C=C\C/C=C\CCCC(=O)Nc1cccc(O)c1 [AM403, N-(3-hydroxyphenyl)-arachidonamide]
- times less effective than N-(4-hydroxyphenyl)-arachidonamide (anandamide transporter [7]; human astrocytoma cells, ratio of IC50): 10 times
- IC50 (anandamide transporter [7]; human astrocytoma cells): 21.3 ± 3.4 µM
- cAMP, % of forskolin alone [5]: 92.4±2.3%
- enhancement of the anandamide response on cAMP (in words) [5]: less effective

Molecule: cis-eicosadienoylethanolamide
- transport into cells (substrate translocation, in words) (anandamide transporter [8]): transported very slowly

Molecule: CCCCCC=CCC=CCC=CCC=CCCCC(=O)NC(C)CO (centres unmarked) [drawing 12]
- IC50 (anandamide transporter [1]): 37.7 ± 0.7 µM

Molecule: CCCCCCCC/C=C\CCCCCCCC(=O)NCCO [oleylethanolamide]
- transport into cells (substrate translocation, in words) (anandamide transporter [8]): not transported at all

Molecule: N[C@@H](CCC(=O)O)C(=O)O [glutamate, reference compound]
- cAMP, % of forskolin alone [5]: 91.6±2%

Molecule: CCCCC/C=C\C/C=C\C/C=C\C/C=C\CCCC(N)=O [arachidonamide]
- competition with [3H]anandamide for transport / uptake inhibition (in words) (anandamide transporter [7]): compete with anandamide for uptake
- transport into cells (substrate translocation, in words) (anandamide transporter [8]): effectively transported into cells

Molecule: CCCCCC=CCC=CCC=CCC=CCCCC(=O)N1CCC(O)C1 (centres unmarked)
- IC50 (anandamide transporter [1]): 15.3 ± 3 µM

Molecule: CCCCCC=CCC=CCC=CCC=CCCCC(N)=O
- IC50 (anandamide transporter [1]): 9 ± 2 µM

Molecule: CCCCCCCCCCCCCCCC(=O)NCCO [palmitoyl ethanolamide, reference compound]
- effect on [3H]anandamide accumulation (in words) (anandamide transporter [6]; cortical astrocytes, WIN-55212-2 1 μM, SR-141716-A 10 μM): not
- transport into cells (substrate translocation, in words) (anandamide transporter [8]): not transported to any significant extent

Molecule: CCCCCC=CCC=CCC=CCC=CCCC(C)(C)C(=O)NCCO
- IC50 (anandamide transporter [1]): 7.6 ± 1.2 µM

Molecule: CCCCCC=CCC=CCC=CCC=CCCCC(=O)OC(CO)CO
- IC50 (anandamide transporter [1]): 18.5 ± 0.7 µM

Molecule: cis-eicosatrienoylethanolamide
- transport into cells (substrate translocation, in words) (anandamide transporter [8]): transported very slowly

Molecule: CCCCCC=CCC=CCC=CCC=CCCCC(=O)NCC
- IC50 (anandamide transporter [1]): 48.5 ± 7.3 µM

Molecule: CCCCCC=CCC=CCC=CCC=CCCC(C)(C)C(=O)NCC(C)O (centres unmarked) [drawing 22]
- IC50 (anandamide transporter [1]): 16.5 ± 1 µM
